In brackets after ≈: the same amount, converted by molar mass.
Experiments:
Format in all cases: cell-based
[1] = test system: P. aeruginosa 35151 (hyper-permeable strain); assay: broth microdilution MIC assay, P. aeruginosa 35151; details: Pseudomonas aeruginosa, read-out: MIC, P. aeruginosa 35151
Protocol: (§1) To determine the ability of test compounds to inhibit the growth of bacterial strains, classic cell-based broth microdilution MIC assays were employed. MIC assays are performed according to CLSI methods except where otherwise noted (CLSI, 2011 and CLSI, 2009). The reference strains S. aureus ATCC 29213 (methicillin sensitive), S. aureus ATCC 33591 (methicillin-resistant), E. coli ATCC 25922 (wild-type/QC strain), P. aeruginosa ATCC 27853 (wild-type/QC strain), and the clinical isolate P. aeruginosa PA 8 were used to determine the ability of the exemplary carbapenem compounds to inhibit bacterial growth. An expanded panel of methicillin resistance S. aureus (MRSA) and Pseudomonas was also used to determine the ability of exemplary carbapenem compounds to inhibit bacterial growth across a broader representation of those species. To determine activity in MRSA and in addition to S. aureus ATCC 33591, S. aureus USA 300 and USA 600, some of the most common clones found to cause human infection, were also used. To further gauge the impact on the carbapenem compounds due to various resistance mechanisms in Pseudomonas, the following strains were included: P. aeruginosa 35151 (hyper-permeable strain), P. aeruginosa ΔmexAB-OprM (an efflux pump knockout), and P. aeruginosa Paβ-173 (a clinical isolate of reduced carbapenem susceptibility). Briefly, cryo-preserved bacterial cultures of clinical strains are streaked for isolation on appropriate agar medium, in this case Mueller Hinton II agar. Following incubation to allow formation of colonies, these plates are sealed with parafilm and stored refrigerated for up to two weeks. For preparation of assay inocula and to ensure low variability, at least 5 colonies are picked from the agar plates with an inoculating loop and aseptically transferred to a culture tube containing 3 mL of Mueller-Hinton Broth (supplemented with divalent cations to required levels based on Manufacturers' specification). The broth culture is grown for 3-5 hours at 37° C. with shaking at 200 rpm. Meanwhile, 2-fold serial dilutions of test compounds are conducted in a 96 well plate with a final volume of 75 μL per well at 2-fold the final desired concentration. After the dilution plates are set up the growing cultures are then diluted in a cuvette containing MH II broth and the optical density is measured at 600 nm. Inocula are diluted such that 75 μL of this culture in Mueller-Hinton Broth results in a starting bacterial concentration of 5×10^5 CFU/mL when added to the dilution plates. The plates are incubated 16-20 hours at 37° C. The MIC is read visually as the lowest concentration well with no bacterial growth.

[2] = test system: E. coli ATCC 25922 (wild-type/QC strain); assay: broth microdilution MIC assay, E. coli 25922; details: Escherichia coli, ATCC25922; read-out: MIC, E. coli 25922
Protocol: as §1

[3] = test system: S. aureus ATCC 33591 (methicillin-resistant); assay: broth microdilution MIC assay, S. aureus 33591; details: Staphylococcus aureus, ATCC33591; S. aureus 33591, methicillin-resistant; read-out: MIC, S. aureus 33591
Protocol: as §1

[4] = test system: P. aeruginosa ATCC 27853 (wild-type/QC strain); assay: broth microdilution MIC assay, P. aeruginosa 27853; details: Pseudomonas aeruginosa, ATCC27853; read-out: MIC, P. aeruginosa 27853
Protocol: as §1

P. aeruginosa Paeβ-17 = assay: broth microdilution MIC assay, P. aeruginosa Paeβ-17; details: Pseudomonas aeruginosa, read-out: MIC, P. aeruginosa Paeβ-17
Protocol: as §1

[5] = test system: P. aeruginosa ΔmexAB-OprM (an efflux pump knockout); assay: broth microdilution MIC assay, P. aeruginosa ΔmexAB-OprM; details: Pseudomonas aeruginosa, read-out: MIC, P. aeruginosa ΔmexAB-OprM
Protocol: as §1

S. aureus USA 300 = assay: broth microdilution MIC assay, S. aureus USA300; details: Staphylococcus aureus; S. aureus USA300 (MRSA); read-out: MIC, S. aureus USA300
Protocol: as §1

S. aureus USA 600 = assay: broth microdilution MIC assay, S. aureus USA600; details: Staphylococcus aureus; S. aureus USA600 (MRSA); read-out: MIC, S. aureus USA600
Protocol: as §1

SMILES	MIC [1]	MIC [2]	MIC [3]	MIC [4]	MIC (P. aeruginosa Paeβ-17)	MIC [5]	MIC (S. aureus USA 300)	MIC (S. aureus USA 600)
C[C@@H](O)[C@H]1C(=O)N2C(C(=O)O)=C(S[C@@H]3CCN([C@H]4CC[C@H](NC(=N)N)CC4)C3)[C@H](C)[C@H]12 [Example 27, (4R,5S,6S)-3-(((R)-1-((1R,4R)-4-guanidinocyclohexyl)pyrrolidin-3-yl)thio)-6-((R)-1-hydroxyethyl)-4-methyl-7-oxo-1-azabicyclo[3.2.0]hept-2-ene-2-carboxylic acid]	< 1 µg/mL	< 1 µg/mL	1 to 4 µg/mL (≈ 2.21 to 8.86 µM)	8 to 32 µg/mL (≈ 17.7 to 70.9 µM)	8 to 32 µg/mL (≈ 17.7 to 70.9 µM)	1 to 4 µg/mL (≈ 2.21 to 8.86 µM)	1 to 4 µg/mL (≈ 2.21 to 8.86 µM)	1 to 4 µg/mL (≈ 2.21 to 8.86 µM)
C[C@@H](O)[C@H]1C(=O)N2C(C(=O)O)=C(S[C@H]3C[C@H](N[C@H]4CC[C@@H](NC(=N)N)CC4)C3)[C@H](C)[C@H]12 [Example 69, (4R,5S,6S)-3-(((1R,3R)-3-(((1S,4S)-4-guanidinocyclohexyl)amino)cyclobutyl)thio)-6-((R)-1-hydroxyethyl)-4-methyl-7-oxo-1-azabicyclo[3.2.0]hept-2-ene-2-carboxylic acid]	< 1 µg/mL	< 1 µg/mL	8 to 32 µg/mL (≈ 17.7 to 70.9 µM)	8 to 32 µg/mL (≈ 17.7 to 70.9 µM)	8 to 32 µg/mL (≈ 17.7 to 70.9 µM)	1 to 4 µg/mL (≈ 2.21 to 8.86 µM)	1 to 4 µg/mL (≈ 2.21 to 8.86 µM)	1 to 4 µg/mL (≈ 2.21 to 8.86 µM)
C[C@@H](O)[C@H]1C(=O)N2C(C(=O)O)=C(S[C@H]3C[C@@H](NC4CCN(C(=N)N)CC4)C3)[C@H](C)[C@H]12 [Example 43, (4R,5S,6S)-3-(((1S,3S)-3-((1-carbamimidoylpiperidin-4-yl)amino)cyclobutyl)thio)-6-((R)-1-hydroxyethyl)-4-methyl-7-oxo-1-azabicyclo[3.2.0]hept-2-ene-2-carboxylic acid]	< 1 µg/mL	< 1 µg/mL	1 to 4 µg/mL (≈ 2.29 to 9.14 µM)	1 to 4 µg/mL (≈ 2.29 to 9.14 µM)	8 to 32 µg/mL (≈ 18.3 to 73.1 µM)	1 to 4 µg/mL (≈ 2.29 to 9.14 µM)	< 1 µg/mL	< 1 µg/mL
C[C@@H](O)[C@H]1C(=O)N2C(C(=O)O)=C(SC3CN(C[C@H]4CCCN4)C3)[C@H](C)[C@H]12 [Example 32, (4R,5S,6S)-6-((R)-1-hydroxyethyl)-4-methyl-7-oxo-3-((1-(((R)-pyrrolidin-2-yl)methyl)azetidin-3-yl)thio)-1-azabicyclo[3.2.0]hept-2-ene-2-carboxylic acid]	< 1 µg/mL	< 1 µg/mL	8 to 32 µg/mL (≈ 21 to 83.9 µM)	8 to 32 µg/mL (≈ 21 to 83.9 µM)	8 to 32 µg/mL (≈ 21 to 83.9 µM)	1 to 4 µg/mL (≈ 2.62 to 10.5 µM)	1 to 4 µg/mL (≈ 2.62 to 10.5 µM)	1 to 4 µg/mL (≈ 2.62 to 10.5 µM)
C[C@@H](O)[C@H]1C(=O)N2C(C(=O)O)=C(S[C@@H]3CCN([C@H]4CC[C@@H](N)C4)C3)[C@H](C)[C@H]12 [Example 36, (4R,5S,6S)-3-(((R)-1-((1S,3R)-3-aminocyclopentyl)pyrrolidin-3-yl)thio)-6-((R)-1-hydroxyethyl)-4-methyl-7-oxo-1-azabicyclo[3.2.0]hept-2-ene-2-carboxylic acid]	< 1 µg/mL	< 1 µg/mL	1 to 4 µg/mL (≈ 2.53 to 10.1 µM)	1 to 4 µg/mL (≈ 2.53 to 10.1 µM)	8 to 32 µg/mL (≈ 20.2 to 80.9 µM)	1 to 4 µg/mL (≈ 2.53 to 10.1 µM)	1 to 4 µg/mL (≈ 2.53 to 10.1 µM)	1 to 4 µg/mL (≈ 2.53 to 10.1 µM)
C[C@@H](O)[C@H]1C(=O)N2C(C(=O)O)=C(S[C@H]3C[C@@H](N[C@H]4CC[C@@H](N)CC4)C3)[C@H](C)[C@H]12 [Example 62, (4R,5S,6S)-3-(((1S,3S)-3-(((1S,4R)-4-aminocyclohexyl)amino)cyclobutyl)thio)-6-((R)-1-hydroxyethyl)-4-methyl-7-oxo-1-azabicyclo[3.2.0]hept-2-ene-2-carboxylic acid]	< 1 µg/mL	< 1 µg/mL	1 to 4 µg/mL (≈ 2.44 to 9.77 µM)	1 to 4 µg/mL (≈ 2.44 to 9.77 µM)	8 to 32 µg/mL (≈ 19.5 to 78.1 µM)	1 to 4 µg/mL (≈ 2.44 to 9.77 µM)	1 to 4 µg/mL (≈ 2.44 to 9.77 µM)	1 to 4 µg/mL (≈ 2.44 to 9.77 µM)

— patent US20230127944A1, “BROAD-SPECTRUM CARBAPENEMS” (priority 2019, published 2023)
